Columns and labels:
NSP10/14 complex [1] = molecular target: T1, NSP10/14 complex (Severe acute respiratory syndrome coronavirus 2, UniProt P0DTD1); assay: biochemical
T1 construct: gene rep; full-length NSP14 and NSP10 (139 aa), mature chains of replicase polyprotein 1ab; N-terminal His-tags (pDEST527), E. coli Rosetta2; assembled in vitro, copurified on Mono S, near stoichiometric; with Non-structural protein 10

NSP10/14 complex [2] = molecular target: T1, NSP10/14 complex; type: binding
NSP14 = molecular target: T2, NSP14 (Severe acute respiratory syndrome coronavirus 2, UniProt P0DTD1); type: binding
T2 construct: gene rep; full-length NSP14, mature chain of replicase polyprotein 1ab; N-terminal His-tag (pDEST527), E. coli Rosetta2

Nc1ncnc2c1ncn2[C@@H]1O[C@H](CSCC[C@H](N)C(=O)O)[C@@H](O)[C@H]1O [S-adenosylhomocysteine]
EC50 (NSP10/14 complex [1]): 25 ± 9 µM | Tm at 400 μM SAH (NSP10/14 complex [2]): 48.2 ± 0.2 °C | Tm at 40 μM SAH (control Tm 43.1 ± 0.2 °C) (NSP14): 48.5 ± 0.17 °C

— PMC8685350, “Activation of the SARS-CoV-2 NSP14 3′–5′ exoribonuclease by NSP10 and response to antiviral inhibitors” (The Journal of Biological Chemistry, 2021)
